{
  "source": "ChEMBL document CHEMBL1201862",
  "about": "“PubChem BioAssay data set” (2004)",
  "experiment_in_all_cases": "growth of human tumour cells (NCI), 48 h",
  "key": {"786-0": {"tested_on": "786-0"}, "A498": {"tested_on": "A498"}, "A549": {"tested_on": "A549"}, "ACHN": {"tested_on": "ACHN"}, "BT-549": {"tested_on": "BT-549"}, "CAKI-1": {"tested_on": "CAKI-1"}, "CCRF-CEM": {"tested_on": "CCRF-CEM"}, "COLO 205": {"tested_on": "COLO 205"}, "DLD-1": {"tested_on": "DLD-1"}, "DMS-114": {"tested_on": "DMS-114"}, "DMS-273": {"tested_on": "DMS-273"}, "DU-145": {"tested_on": "DU-145"}, "EKVX": {"tested_on": "EKVX"}, "HCC 2998": {"tested_on": "HCC 2998"}, "HCT-116": {"tested_on": "HCT-116"}, "HCT-15": {"tested_on": "HCT-15"}, "HL-60": {"tested_on": "HL-60"}, "HOP-18": {"tested_on": "HOP-18"}, "HOP-62": {"tested_on": "HOP-62"}, "HOP-92": {"tested_on": "HOP-92"}, "HT-29": {"tested_on": "HT-29"}, "Hs-578T": {"tested_on": "Hs-578T"}, "IGROV-1": {"tested_on": "IGROV-1"}, "K562": {"tested_on": "K562"}, "KM-20L2": {"tested_on": "KM-20L2"}, "KM12": {"tested_on": "KM12"}, "LOX IMVI": {"tested_on": "LOX IMVI"}, "LXFL 529": {"tested_on": "LXFL 529"}, "M14": {"tested_on": "M14"}, "M19-MEL": {"tested_on": "M19-MEL"}, "MCF7": {"tested_on": "MCF7"}, "MDA-MB-231": {"tested_on": "MDA-MB-231"}, "MDA-MB-435": {"tested_on": "MDA-MB-435"}, "MDA-N": {"tested_on": "MDA-N"}, "MOLT-4": {"tested_on": "MOLT-4"}, "Malme-3M": {"tested_on": "Malme-3M"}, "NCI-H226": {"tested_on": "NCI-H226"}, "NCI-H23": {"tested_on": "NCI-H23"}, "NCI-H460": {"tested_on": "NCI-H460"}, "NCI-H522": {"tested_on": "NCI-H522"}, "NCI/ADR-RES": {"tested_on": "NCI/ADR-RES"}, "OVCAR-3": {"tested_on": "OVCAR-3"}, "OVCAR-4": {"tested_on": "OVCAR-4"}, "OVCAR-5": {"tested_on": "OVCAR-5"}, "OVCAR-8": {"tested_on": "OVCAR-8"}, "PC-3": {"tested_on": "PC-3"}, "RPMI-8226": {"tested_on": "RPMI-8226"}, "RXF 393": {"tested_on": "RXF 393"}, "SF-268": {"tested_on": "SF-268"}, "SF-295": {"tested_on": "SF-295"}, "SF-539": {"tested_on": "SF-539"}, "SK-MEL-28": {"tested_on": "SK-MEL-28"}, "SK-MEL-2": {"tested_on": "SK-MEL-2"}, "SK-MEL-5": {"tested_on": "SK-MEL-5"}, "SK-OV-3": {"tested_on": "SK-OV-3"}, "SN12C": {"tested_on": "SN12C"}, "SNB-19": {"tested_on": "SNB-19"}, "SNB-75": {"tested_on": "SNB-75"}, "SNB-78": {"tested_on": "SNB-78"}, "SR": {"tested_on": "SR"}, "SW-620": {"tested_on": "SW-620"}, "T47D": {"tested_on": "T47D"}, "TK-10": {"tested_on": "TK-10"}, "U-251": {"tested_on": "U-251"}, "UACC-257": {"tested_on": "UACC-257"}, "UACC-62": {"tested_on": "UACC-62"}, "UO-31": {"tested_on": "UO-31"}, "XF498": {"tested_on": "XF498"}},
  "note": "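Values below derive from 48-hour exposures of cells grown in 96-well plates, with endpoints linearly interpolated between the two concentrations bracketing the appropriate inhibition level. GI50 marks 50% less growth.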 Calls of active or inactive are those of the source. No stated cut-off is given here; in the data, active = GI50 up to about 1.1 µM and inactive = higher.",
  "data": [
    {"smiles": "Cn1c2ccccc2c2ccc3c(c21)C(=O)C=CC3=O", "values": [
      {"measurement": "GI50", "setting": "786-0", "value": "4.27 µM (inactive)"},
      {"measurement": "GI50", "setting": "A498", "value": "> 45.2 µM (inactive)"},
      {"measurement": "GI50", "setting": "A549", "value": "26.2 µM (inactive)"},
      {"measurement": "GI50", "setting": "ACHN", "value": "3.52 µM (inactive)"},
      {"measurement": "GI50", "setting": "BT-549", "value": "6.98 µM (inactive)"},
      {"measurement": "GI50", "setting": "CAKI-1", "value": "4.33 µM (inactive)"},
      {"measurement": "GI50", "setting": "CCRF-CEM", "value": "0.69 µM (active)"},
      {"measurement": "GI50", "setting": "COLO 205", "value": "2.43 µM (inactive)"},
      {"measurement": "GI50", "setting": "DLD-1", "value": "2.3 µM (inactive)"},
      {"measurement": "GI50", "setting": "DMS-114", "value": "8.26 µM (inactive)"},
      {"measurement": "GI50", "setting": "DMS-273", "value": "12.9 µM (inactive)"},
      {"measurement": "GI50", "setting": "DU-145", "value": "16 µM (inactive)"},
      {"measurement": "GI50", "setting": "EKVX", "value": "19.4 µM (inactive)"},
      {"measurement": "GI50", "setting": "HCC 2998", "value": "10.3 µM (inactive)"},
      {"measurement": "GI50", "setting": "HCT-116", "value": "4.29 µM (inactive)"},
      {"measurement": "GI50", "setting": "HCT-15", "value": 4.56, "unit": "µM"},
      {"measurement": "GI50", "setting": "HL-60", "value": "0.738 µM (active)"},
      {"measurement": "GI50", "setting": "HOP-18", "value": "2 µM (inactive)"},
      {"measurement": "GI50", "setting": "HOP-62", "value": "28 µM (inactive)"},
      {"measurement": "GI50", "setting": "HOP-92", "value": "2.52 µM (inactive)"},
      {"measurement": "GI50", "setting": "HT-29", "value": "10.5 µM (inactive)"},
      {"measurement": "GI50", "setting": "Hs-578T", "value": "18.4 µM (inactive)"},
      {"measurement": "GI50", "setting": "IGROV-1", "value": "15.4 µM (inactive)"},
      {"measurement": "GI50", "setting": "K562", "value": "1.75 µM (inactive)"},
      {"measurement": "GI50", "setting": "KM-20L2", "value": "17.1 µM (inactive)"},
      {"measurement": "GI50", "setting": "KM12", "value": "22.9 µM (inactive)"},
      {"measurement": "GI50", "setting": "LOX IMVI", "value": "4.18 µM (inactive)"},
      {"measurement": "GI50", "setting": "LXFL 529", "value": "2.95 µM (inactive)"},
      {"measurement": "GI50", "setting": "M14", "value": "8.65 µM (inactive)"},
      {"measurement": "GI50", "setting": "M19-MEL", "value": "10.5 µM (inactive)"},
      {"measurement": "GI50", "setting": "MCF7", "value": "3.3 µM (inactive)"},
      {"measurement": "GI50", "setting": "MDA-MB-231", "value": "6.73 µM (inactive)"},
      {"measurement": "GI50", "setting": "MDA-MB-435", "value": "5.11 µM (inactive)"},
      {"measurement": "GI50", "setting": "MDA-N", "value": "6.82 µM (inactive)"},
      {"measurement": "GI50", "setting": "MOLT-4", "value": "0.755 µM (active)"},
      {"measurement": "GI50", "setting": "Malme-3M", "value": "3.39 µM (inactive)"},
      {"measurement": "GI50", "setting": "NCI-H226", "value": "20.5 µM (inactive)"},
      {"measurement": "GI50", "setting": "NCI-H23", "value": "12.7 µM (inactive)"},
      {"measurement": "GI50", "setting": "NCI-H460", "value": "16.9 µM (inactive)"},
      {"measurement": "GI50", "setting": "NCI-H522", "value": "2.96 µM (inactive)"},
      {"measurement": "GI50", "setting": "NCI/ADR-RES", "value": "5.16 µM (inactive)"},
      {"measurement": "GI50", "setting": "OVCAR-3", "value": "7.24 µM (inactive)"},
      {"measurement": "GI50", "setting": "OVCAR-4", "value": "1.82 µM (inactive)"},
      {"measurement": "GI50", "setting": "OVCAR-5", "value": "14.1 µM (inactive)"},
      {"measurement": "GI50", "setting": "OVCAR-8", "value": "7.03 µM (inactive)"},
      {"measurement": "GI50", "setting": "PC-3", "value": "5.6 µM (inactive)"},
      {"measurement": "GI50", "setting": "RPMI-8226", "value": "2.32 µM (inactive)"},
      {"measurement": "GI50", "setting": "RXF 393", "value": "2.47 µM (inactive)"},
      {"measurement": "GI50", "setting": "SF-268", "value": "14.8 µM (inactive)"},
      {"measurement": "GI50", "setting": "SF-295", "value": "24.7 µM (inactive)"},
      {"measurement": "GI50", "setting": "SF-539", "value": "11.5 µM (inactive)"},
      {"measurement": "GI50", "setting": "SK-MEL-28", "value": "11.1 µM (inactive)"},
      {"measurement": "GI50", "setting": "SK-MEL-2", "value": "15.6 µM (inactive)"},
      {"measurement": "GI50", "setting": "SK-MEL-5", "value": "15.2 µM (inactive)"},
      {"measurement": "GI50", "setting": "SK-OV-3", "value": "17.1 µM (inactive)"},
      {"measurement": "GI50", "setting": "SN12C", "value": "9.93 µM (inactive)"},
      {"measurement": "GI50", "setting": "SNB-19", "value": "26.5 µM (inactive)"},
      {"measurement": "GI50", "setting": "SNB-75", "value": "16.7 µM (inactive)"},
      {"measurement": "GI50", "setting": "SNB-78", "value": "21.1 µM (inactive)"},
      {"measurement": "GI50", "setting": "SR", "value": "0.796 µM (active)"},
      {"measurement": "GI50", "setting": "SW-620", "value": "2.02 µM (inactive)"},
      {"measurement": "GI50", "setting": "T47D", "value": "3.27 µM (inactive)"},
      {"measurement": "GI50", "setting": "TK-10", "value": "3.88 µM (inactive)"},
      {"measurement": "GI50", "setting": "U-251", "value": "11.4 µM (inactive)"},
      {"measurement": "GI50", "setting": "UACC-257", "value": "9.48 µM (inactive)"},
      {"measurement": "GI50", "setting": "UACC-62", "value": "12.1 µM (inactive)"},
      {"measurement": "GI50", "setting": "UO-31", "value": "6.93 µM (inactive)"},
      {"measurement": "GI50", "setting": "XF498", "value": "2.15 µM (inactive)"}
    ]}
  ]
}
